Results as given in DBAASP.
In brackets after ≈: the same amount, converted by molar mass. One block for each molecule: values may come before it.

Assays:
Assay in all cases: ≥ marks a high value that may be exact or a test limit, other limits are often not marked, values filed in µg/mL are converted to µM
[1] = tested on: Escherichia coli DH5alpha
[2] = tested on: Bacillus subtilis DSM 347
[3] = tested on: Staphylococcus aureus ATCC 33591
[4] = tested on: Klebsiella pneumoniae ATCC 700603
[5] = tested on: Staphylococcus aureus ATCC 700699
[6] = tested on: Pseudomonas aeruginosa ATCC 27853
[7] = tested on: Escherichia coli ATCC 25922
[8] = tested on: Staphylococcus aureus ATCC 29213
Escherichia coli = tested on: Escherichia coli
[9] = tested on: Pseudomonas aeruginosa H188
Streptococcus pyogenes = tested on: Streptococcus pyogenes
Proteus mirabilis = tested on: Proteus mirabilis
Staphylococcus aureus = tested on: Staphylococcus aureus
Pseudomonas aeruginosa = tested on: Pseudomonas aeruginosa
[10] = tested on: Staphylococcus aureus ATCC 25923
[11] = tested on: Pseudomonas aeruginosa H103
[12] = tested on: Staphylococcus epidermidis
Candida albicans = tested on: Candida albicans
Escherichia coli UB1005 = tested on: Escherichia coli UB1005
[13] = tested on: Salmonella enterica serovar Typhimurium
[14] = tested on: Staphylococcus aureus KCTC 1621
[15] = tested on: Bacillus subtilis KCTC 1021
[16] = tested on: Pseudomonas aeruginosa KCTC 1637
[17] = tested on: Staphylococcus epidermidis KCTC 1917
[18] = tested on: Salmonella typhimurium KCTC 1926
[19] = tested on: Bacillus subtilis KCTC 3068
[20] = tested on: Staphylococcus aureus KCTC 3881
[21] = tested on: Bacillus subtilis KCTC 1022
[22] = tested on: Escherichia coli KCTC 1682
[23] = tested on: Escherichia coli KCTC 2593
[24] = tested on: Pseudomonas aeruginosa KCTC 2513
[25] = tested on: Escherichia coli KCTC 2571
[26] = tested on: Staphylococcus aureus KCTC 1916
[27] = tested on: Pseudomonas aeruginosa KCTC 2004

Structure (SMILES): CC[C@H](C)[C@H](NC(=O)CN)C(=O)NCC(=O)N[C@@H](CCCCN)C(=O)N[C@@H](Cc1ccccc1)C(=O)N[C@H](C(=O)N[C@@H](Cc1cnc[nH]1)C(=O)N[C@@H](C)C(=O)N[C@H](C(=O)N[C@@H](CCCCN)C(=O)N[C@@H](CCCCN)C(=O)N[C@@H](Cc1c[nH]c2ccccc12)C(=O)NCC(=O)N[C@@H](CCCCN)C(=O)N[C@H](C(=O)N[C@@H](Cc1ccccc1)C(=O)N[C@H](C(=O)NCC(=O)N[C@@H](CCC(=O)O)C(=O)N[C@H](C(=O)N[C@@H](C)C(=O)N[C@@H](CCCCN)C(=O)N[C@@H](CO)C(N)=O)[C@@H](C)CC)[C@@H](C)CC)[C@@H](C)O)C(C)C)[C@@H](C)CC [GIGKFIHAVKKWGKTFIGEIAKS]
- MIC [1]: 0.8 µM (≈ 2.01 µg/mL)
- MIC [2]: 1.6 µM (≈ 4.02 µg/mL)

Structure (SMILES): CC[C@H](C)[C@H](NC(=O)[C@H](CC(=O)O)NC(=O)[C@H](CCCCN)NC(=O)[C@H](C)NC(=O)[C@H](C)NC(=O)CNC(=O)[C@H](CCCCN)NC(=O)[C@H](CC(C)C)NC(=O)[C@H](C)NC(=O)[C@H](CC(=O)O)NC(=O)[C@@H](NC(=O)[C@@H](NC(=O)CN)C(C)C)C(C)C)C(=O)N[C@@H](C)C(=O)NCC(=O)N[C@@H](Cc1cnc[nH]1)C(=O)N[C@@H](CC(C)C)C(=O)N[C@@H](C)C(=O)N[C@@H](CO)C(=O)N[C@@H](CCCCN)C(=O)N[C@H](C(=O)N[C@@H](CCSC)C(=O)N[C@@H](CC(N)=O)C(=O)N[C@@H](CCCCN)C(=O)N[C@@H](CC(C)C)C(N)=O)C(C)C [GVVDALKGAAKDIAGHLASKVMNKL]
- MIC [3]: ≥ 100 µM
- MIC [4]: > 100 µM
- MIC [5]: ≥ 100 µM
- MIC [6]: > 100 µM
- MIC [7]: > 100 µM
- MIC [8]: > 100 µM

Structure (SMILES): CC[C@H](C)[C@H](NC(=O)[C@H](CC(=O)O)NC(=O)[C@H](CCCCN)NC(=O)[C@H](C)NC(=O)[C@H](C)NC(=O)CNC(=O)[C@H](CCCCN)NC(=O)[C@H](CC(C)C)NC(=O)[C@@H](NC(=O)[C@H](CC(=O)O)NC(=O)[C@@H](NC(=O)[C@@H](NC(=O)CN)C(C)C)C(C)C)[C@@H](C)CC)C(=O)N[C@@H](CC(C)C)C(=O)NCC(=O)N[C@@H](Cc1cnc[nH]1)C(=O)N[C@@H](CC(C)C)C(=O)N[C@@H](C)C(=O)N[C@@H](CO)C(=O)N[C@@H](CCCCN)C(=O)N[C@H](C(=O)N[C@@H](CCSC)C(=O)N[C@@H](CC(N)=O)C(=O)N[C@@H](CCCCN)C(=O)N[C@@H](CC(C)C)C(N)=O)C(C)C [GVVDILKGAAKDILGHLASKVMNKL]
- MIC [3]: 25 µM (≈ 64.8 µg/mL)
- MIC [4]: 25 µM (≈ 64.8 µg/mL)
- MIC [5]: ≥ 50 µM
- MIC [6]: 50 µM (≈ 130 µg/mL)
- MIC [7]: 6.25 µM (≈ 16.2 µg/mL)
- MIC [8]: 100 µM (≈ 259 µg/mL)

Structure (SMILES): CC[C@H](C)[C@H](NC(=O)[C@H](C)NC(=O)[C@H](CCCCN)NC(=O)[C@H](CC(C)C)NC(=O)[C@H](C)NC(=O)[C@@H](NC(=O)[C@H](Cc1cnc[nH]1)NC(=O)[C@H](CC(C)C)NC(=O)[C@H](CCCCN)NC(=O)[C@@H](NC(=O)[C@H](CCCCN)NC(=O)[C@H](CCCCN)NC(=O)[C@H](C)NC(=O)[C@H](CO)NC(=O)[C@H](CCCCN)NC(=O)[C@H](Cc1ccccc1)NC(=O)[C@@H](NC(=O)[C@H](CCCCN)NC(=O)[C@H](CC(C)C)NC(=O)[C@H](Cc1ccccc1)NC(=O)[C@H](CO)NC(=O)[C@H](CCCCN)NC(=O)[C@H](Cc1c[nH]c2ccccc12)NC(=O)[C@H](CCCCN)NC(C)=O)[C@@H](C)O)[C@@H](C)O)[C@@H](C)O)C(=O)N[C@@H](CO)C(=O)N[C@@H](CO)C(N)=O [KWKSFLKTFKSAKKTKLHTALKAISS]
- MIC [1]: 5.37 µM (≈ 16.2 µg/mL)
- MIC (Escherichia coli): 2.69 µM (≈ 8.11 µg/mL)
- MIC [9]: 5.37 µM (≈ 16.2 µg/mL)
- MIC [6]: 10.7 µM (≈ 32.4 µg/mL)
- MIC [7]: 10.7 µM (≈ 32.4 µg/mL)

Structure (SMILES): NC(N)=NCCC[C@H](NC(=O)[C@H](Cc1c[nH]c2ccccc12)NC(=O)[C@H](CCCN=C(N)N)NC(=O)[C@H](CCCN=C(N)N)NC(=O)[C@H](Cc1c[nH]c2ccccc12)NC(=O)[C@H](CCCN=C(N)N)NC(=O)[C@H](CCCN=C(N)N)NC(=O)[C@H](Cc1c[nH]c2ccccc12)NC(=O)[C@H](CCCN=C(N)N)NC(=O)[C@H](CCCN=C(N)N)NC(=O)[C@H](Cc1c[nH]c2ccccc12)NC(=O)[C@@H](N)CCCN=C(N)N)C(=O)O [RWRRWRRWRRWR]
- MIC (Streptococcus pyogenes): 0.497 µM (≈ 1 µg/mL)
- MIC (Proteus mirabilis): 31.8 µM (≈ 64 µg/mL)
- MIC (Staphylococcus aureus): 5.96 µM (≈ 12 µg/mL)
- MIC (Pseudomonas aeruginosa): > 31.8 µM

Further lines, results first:

- MIC [10]: 34.4 µM (≈ 50 µg/mL)
- MIC [11]: ≥ 34.4 µM
- MIC [12]: 2.07 µM (≈ 3 µg/mL)
- MIC (Candida albicans): 34.4 µM (≈ 50 µg/mL)
- MIC (Escherichia coli UB1005): 4.13 µM (≈ 6 µg/mL)
- MIC [13]: ≥ 34.4 µM
Structure (SMILES): CC[C@H](C)[C@H](NC(=O)[C@H](Cc1c[nH]c2ccccc12)NC(=O)[C@H](CC(C)C)NC(=O)[C@H](CCCN=C(N)N)NC(=O)[C@@H](N)C(C)C)C(=O)N[C@@H](CCCN=C(N)N)C(=O)N[C@H](C(=O)N[C@@H](C)C(=O)N[C@H](C(=O)N[C@H](C(=O)N[C@@H](CCCN=C(N)N)C(=O)N[C@@H](C)C(N)=O)[C@@H](C)CC)C(C)C)C(C)C [VRLWIRVAVIRA]

- MIC [14]: 2 µM (≈ 5.22 µg/mL)
- MIC [15]: 2 µM (≈ 5.22 µg/mL)
- MIC [16]: 4 µM (≈ 10.4 µg/mL)
- MIC [17]: 2 µM (≈ 5.22 µg/mL)
- MIC [18]: 2 µM (≈ 5.22 µg/mL)
- MIC [19]: 2 µM (≈ 5.22 µg/mL)
- MIC [20]: 2 µM (≈ 5.22 µg/mL)
- MIC [21]: 2 µM (≈ 5.22 µg/mL)
- MIC [22]: 2 µM (≈ 5.22 µg/mL)
- MIC [23]: 2 µM (≈ 5.22 µg/mL)
- MIC [24]: 4 µM (≈ 10.4 µg/mL)
- MIC [25]: 2 µM (≈ 5.22 µg/mL)
- MIC [26]: 2 µM (≈ 5.22 µg/mL)
- MIC [27]: 4 µM (≈ 10.4 µg/mL)
Structure (SMILES): CC[C@H](C)[C@H](NC(=O)CNC(=O)[C@H](CCCN=C(N)N)NC(=O)[C@H](Cc1ccccc1)NC(=O)[C@@H](NC(=O)[C@H](Cc1cnc[nH]1)NC(=O)[C@H](Cc1cnc[nH]1)NC(=O)[C@H](Cc1ccccc1)NC(=O)[C@@H](N)Cc1c[nH]c2ccccc12)[C@@H](C)CC)C(=O)N[C@H](C(=O)N[C@@H](Cc1cnc[nH]1)C(=O)N[C@H](C(=O)NCC(=O)N[C@@H](CCCCN)C(=O)N[C@H](C(=O)N[C@H](C(=O)N[C@@H](Cc1cnc[nH]1)C(=O)N[C@@H](CCCN=C(N)N)C(=O)N[C@@H](CC(C)C)C(=O)N[C@H](C(=O)N[C@H](C(=O)NCC(=O)O)[C@@H](C)O)C(C)C)[C@@H](C)CC)[C@@H](C)O)C(C)C)C(C)C [WFHHIFRGIVHVGKTIHRLVTG]

- MIC (Streptococcus pyogenes): 0.479 µM (≈ 0.875 µg/mL)
- MIC (Proteus mirabilis): ≥ 35 µM
- MIC (Staphylococcus aureus): 5.48 µM (≈ 10 µg/mL)
- MIC (Pseudomonas aeruginosa): > 35 µM
Structure (SMILES): NC(N)=NCCC[C@H](NC(=O)[C@H](CCCN=C(N)N)NC(=O)[C@H](CCCN=C(N)N)NC(=O)[C@H](CCCN=C(N)N)NC(=O)[C@H](CCCN=C(N)N)NC(=O)[C@H](CCCN=C(N)N)NC(=O)[C@H](CCCN=C(N)N)NC(=O)[C@H](CCCN=C(N)N)NC(=O)[C@H](Cc1c[nH]c2ccccc12)NC(=O)[C@H](Cc1c[nH]c2ccccc12)NC(=O)[C@@H](N)Cc1c[nH]c2ccccc12)C(=O)O [WWWRRRRRRRR]
